21 compounds from PubChem BioAssay (NCI) can be followed below.

“And” between values parts separate entries of the source, which are not always exact repeats. Equal values may be shown once.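 In this assay, cells in 96-well plates receive the compound at five concentrations for 48 hours. Endpoints are linearly interpolated between the surrounding concentrations. Abbreviation: GI50, concentration required for 50% inhibition of growth. TGI denotes the concentration required for complete inhibition of growth.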 Bounds are passed on as bounds.

Test in all cases: NCI-60 cell line screen, 48 h
Experiment [1] deals with SNB-75 CNS.
The subject of experiment [2] is HCT-116 colon.
Experiment [3] concerns OVCAR-5 ovarian.
Experiment [4] deals with TK-10 renal.
In experiment [5] the test system is ACHN renal.
Experiment [6] relates to M14 melanoma.
Experiment [7] concerns CAKI-1 renal.
The subject of experiment [8] is MDA-MB-435.
The test system of experiment [9] is SF-268 CNS.
Experiment [10] concerns NCI-H460 lung.

`Nc1nc2ccc([C@@H]3Nc4ccc5[nH]ncc5c4[C@H]4[C@H]5CCC(C5)[C@H]43)cc2s1`: the GI50 in experiment [1] is 0.319 µM; in [2], 0.488 µM; in experiment [3], 1.83 µM; in experiment [4], 2.73 µM; in [5], 1.37 µM; in [6] it was 0.654 µM. Also, the GI50 in experiment [7] was 0.791 µM; in experiment [8], 0.293 µM; in experiment [9], 1.49 µM; in experiment [10] it was 0.81 µM. Besides, the TGI in [1] was 2.47 µM; in experiment [2] it was 1.84 µM; in [3] it was 4.41 µM; in experiment [4], 8.98 µM; in experiment [5] it was 9.57 µM; in experiment [6], 2.62 µM. Moreover, the TGI in [7] worked out at 3.34 µM; in experiment [8], 1.03 µM; in experiment [9], 4.52 µM; in experiment [10], 2.32 µM.
As for `COc1c2ccccc2c(O)c2c(=O)c(C(=O)O)cn(C)c12`, the GI50 in [1], in experiment [2], in experiment [3], in experiment [5], in [6] and in experiment [8] was above 100 µM in each case. For the same compound, the GI50 in [9] and in [10] was above 100 µM in each case. Further, the TGI in experiment [1], in experiment [2], in [3], in [5], in experiment [6] and in experiment [8] was above 100 µM throughout. The TGI in experiment [9] and in [10] was above 100 µM throughout.
As to `CC[C@@]1(O)C(=O)OCc2c1cc1n(c2=O)Cc2cc3cc(OC)ccc3nc2-1`, the TGI in [1] is 0.0491 µM; in experiment [2] it was 0.573 µM and 0.481 µM; in experiment [3], 0.562 µM; in experiment [7] it was 0.0908 µM; in experiment [8], 0.247 µM and 0.333 µM; in [10], 0.152 µM and 0.211 µM and 0.188 µM. In addition, the GI50 in [2] is 0.0442 µM; in experiment [3], 0.643 µM; in experiment [6], 0.127 µM; in experiment [8], 0.117 µM; in [9] it was 0.017 µM; in [10] it was 0.00433 µM.
As for `C=C(CNCCc1ccc(O)cc1)[C@@H]1CC[C@]2(CO)CC[C@]3(C)[C@H](CC[C@@H]4[C@@]5(C)CCC(=O)C(C)(C)[C@@H]5CC[C@]43C)[C@@H]12`, the GI50 is 1.37 µM in [1]; 1.67 µM in experiment [2]; 1.59 µM in experiment [3]; 1.73 µM in experiment [4]; 1.61 µM in [5]; 1.72 µM in [6]. Also, the GI50 in experiment [7] was 1.57 µM; in [8], 1.74 µM; in experiment [10], 1.66 µM. Also, the TGI came out at 2.74 µM in [1]; 3.03 µM in experiment [2]; 3 µM in [3]; 3.19 µM in experiment [4]; 2.96 µM in experiment [5]; 3.24 µM in experiment [6]. The values for the TGI in experiment [7], in [8] and in experiment [10] were 2.96 µM, 3.22 µM and 3.28 µM, respectively.
On to `OCCCSc1ccccc1SCCCO`, for which the TGI in experiment [1], in experiment [2], in [3], in [4], in experiment [6] and in [8] was above 100 µM throughout. The TGI in [9] and in experiment [10] was above 100 µM throughout.
As for `O=C(O)c1cc2ccccc2c(N=Nc2c([N+](=O)[O-])cc([N+](=O)[O-])cc2S(=O)(=O)O)c1O`, the TGI in experiment [1], in [2], in experiment [3], in [4], in experiment [5] and in [6] was above 100 µM throughout. Moreover, the TGI in experiment [7], in experiment [8] and in [9] was above 100 µM throughout.
Turning to `COc1cc2c3c(n(CCCN4CCN(C)CC4)c(=O)c2cc1OC)-c1cc2c(cc1C3=O)OCO2`, the GI50 in experiment [1] is 16 µM; in experiment [2] it was 1.49 µM; in experiment [3] it was 17.6 µM; in experiment [4], 17.1 µM; in experiment [5] it was 10.1 µM; in [7], 10.3 µM. For the same compound, the GI50 was above 100 µM in [8], 11.9 µM in experiment [9] and 5.8 µM in [10]. The TGI was determined as 36 µM in experiment [1]; 11.5 µM in experiment [2]; 31.4 µM in experiment [3]; 31.9 µM in experiment [4]; 22.4 µM in [5]; 23.7 µM in experiment [7]. The TGI is above 100 µM in experiment [8], 41.8 µM in experiment [9] and 28.2 µM in experiment [10].
As for `C/C=C(\C)C(=O)O[C@@H]1C(O)[C@H]2OC(COC(=O)CCC(=O)CCCCCC[C@H](CCCCC)O[C@@H]3OC(C)[C@H](OC(C)=O)C(O)[C@H]3O2)[C@H]1OC(=O)/C=C/c1ccccc1` (some centres not stated), the GI50 in [1] is below 0.01 µM; in [2], below 0.01 µM; in [3], 2.16 µM; in experiment [4], 0.0235 µM; in [5], 0.0175 µM; in [6], below 0.01 µM. Also, the figures for the GI50 in experiment [8], in experiment [9] and in [10] were below 0.01 µM, 0.101 µM and below 0.01 µM, respectively. For the same compound, the TGI in experiment [1] is 0.747 µM; in experiment [2] it was above 33.6 µM; in experiment [3], above 64.2 µM; in experiment [4] it was 5.98 µM; in [5], 12.3 µM; in [6], 0.123 µM. The TGI in [8] is 4.68 µM; in [9], 15.6 µM; in [10], above 60.9 µM.
As for `CO[C@H]1[C@H](O)[C@H](O[C@H]2CC[C@@]3(C)[C@H](CC[C@@H]4[C@@H]3CC[C@]3(C)[C@@H](C5=CC(=O)OC5)CC[C@]43O)C2)O[C@@H](C)[C@@H]1O`, the GI50 in experiment [1] was 0.00233 µM. Besides, the TGI in experiment [1] was 0.0114 µM and 0.0737 µM; in [2], 0.00229 µM and < 0.0113 µM; in experiment [4], 0.00345 µM; in [5], 0.00152 µM; in [6], 0.00302 µM and 0.0169 µM; in [7], 0.00156 µM. The TGI in experiment [8] was below 0.0001 µM; in experiment [9], 0.00183 µM and 0.0166 µM; in [10], 0.00151 µM.
For `Cc1ccc(S(=O)(=O)N2CCC3(C(/C=C/c4ccccc4)=Nc4ccccc43)C2c2ccccc2)cc1` (configuration not stated), the TGI in experiment [1], in [2], in experiment [3], in experiment [4], in experiment [5] and in experiment [6] was above 100 µM each time. In addition, the TGI in experiment [7], in experiment [9] and in [10] was above 100 µM in each case.
As for `N#C/C(=C/c1cccnc1)C(=O)c1ccccc1`, the TGI in [1], in experiment [2], in experiment [3], in experiment [4], in [5] and in experiment [6] was above 100 µM throughout. Further, the TGI in experiment [7], in experiment [9] and in [10] was above 100 µM throughout.
As to `Cc1ccc(S(=O)(=O)N2CCSCCSCCN(S(=O)(=O)c3ccc(C)cc3)CCN(S(=O)(=O)c3ccc(C)cc3)CC2)cc1`, the TGI in [2], in experiment [3], in experiment [4], in experiment [5], in [6] and in [7] was above 100 µM throughout. Besides, the TGI in [8], in experiment [9] and in experiment [10] was above 100 µM in each case.
Turning to `O=C([O-])c1ccc2c(c1)-c1nc-2nc2[n-]c(nc3nc(nc4[n-]c(n1)c1ccc(C(=O)[O-])cc41)-c1cc(C(=O)[O-])ccc1-3)c1ccc(C(=O)[O-])cc21.[Fe+2]`, the GI50 in [1] was 31.8 µM; in [2], 13.6 µM; in experiment [3], above 50 µM; in experiment [4] it was above 50 µM; in experiment [5], above 50 µM; in [6], above 50 µM. Moreover, the GI50 in experiment [7], in experiment [9] and in experiment [10] was above 50 µM throughout. Also, the TGI in [1] was above 50 µM; in [2], 34.4 µM; in [3], above 50 µM; in experiment [4], above 50 µM; in experiment [5] it was above 50 µM; in experiment [6], above 50 µM. Moreover, the TGI in experiment [7], in experiment [9] and in experiment [10] was above 50 µM in each case.
For `Cc1cc(Cc2cc(C)c(NC(=O)C(=O)C3C(=O)NC(=S)NC3=O)c(C(C)C)c2)cc(C(C)C)c1NC(=O)C(=O)C1C(=O)NC(=S)NC1=O`, the TGI in [1], in [2], in experiment [3], in [4], in [5] and in [6] was above 100 µM each time. Further, the TGI in [7], in [9] and in [10] was above 100 µM throughout.
As to `CC1CCCC(C(O)CC2CC(=O)N(c3ccccc3)C(=O)C2)C1=O` (configuration not stated), the TGI in [1], in experiment [2], in experiment [3], in [4], in [5] and in experiment [6] was above 100 µM in each case. Besides, the TGI in experiment [7], in experiment [9] and in [10] was above 100 µM each time.
In the case of `Cc1ccc(-c2ccc(Nc3c4ccccc4nc4ccccc34)cc2)cn1`, the TGI amounted to 10.3 µM in experiment [2]; 69.5 µM in experiment [3]; 6.76 µM in experiment [5]; 11.2 µM in [6]; 9.02 µM in experiment [7]; 16 µM in [8]. For the same compound, the TGI in [9] is above 100 µM; in [10], 5.3 µM.
Turning to `C=C(CN1CCN(c2cccc(C(F)(F)F)c2)CC1)c1ccc(C(=O)Nc2ccccc2N)cc1`, the GI50 was 1.14 µM in [2]; 6.63 µM in experiment [3]; 0.807 µM in experiment [4]; 0.92 µM in experiment [5]; 1.05 µM in [6]; 0.625 µM in experiment [7]. The GI50 in experiment [8] was 0.156 µM; in experiment [9] it was 1.43 µM; in experiment [10], 1.56 µM. Moreover, the TGI is 11.7 µM in experiment [2]; 26.4 µM in experiment [3]; 5.31 µM in experiment [4]; 11.1 µM in experiment [5]; 9.89 µM in experiment [6]; above 17.6 µM in experiment [7]. In addition, the TGI in [8] was 0.554 µM; in [9], 10.8 µM; in experiment [10], above 24.8 µM.
Consider `CCCCn1c2c(c3ccccc3c1=O)C(=O)c1ccccc1-2`, for which the TGI in experiment [1], in [2], in [3], in experiment [4], in [6] and in [7] was above 100 µM throughout. Also, the TGI in experiment [8] and in experiment [9] was above 100 µM throughout.
In the case of `CCC(C(=O)[O-])C(=O)[O-].CCC(C(=O)[O-])C(=O)[O-].N.N.NCCCCCN.[Pt+4].[Pt+4]`, the GI50 in experiment [1] was above 100 µM; in [2] it was above 100 µM; in [3], above 100 µM; in experiment [4] it was above 100 µM; in experiment [5], 72.6 µM; in [6], above 100 µM. In addition, the GI50 in [7] is above 100 µM; in experiment [9], above 100 µM; in experiment [10] it was 21.3 µM. For the same compound, the TGI in [1], in [2], in [3], in experiment [4], in experiment [5] and in [6] was above 100 µM throughout. Also, the TGI in [7], in [9] and in experiment [10] was above 100 µM each time.
Turning to `O=C(CC/C(C/C(=N/O)c1ccc(F)cc1)=N/O)N(Cc1ccccc1)Cc1ccccc1`, the TGI in [1], in [2], in experiment [3], in experiment [4], in experiment [5] and in experiment [6] was above 100 µM throughout. Besides, the TGI in experiment [7], in experiment [9] and in experiment [10] was above 100 µM in each case.
As to `CCOc1ccccc1NC(=O)CCc1nnc2s/c(=C\CCc3ccccc3)c(=O)n12`, the TGI in experiment [1], in experiment [2], in experiment [3], in experiment [4], in [5] and in experiment [6] was above 100 µM each time. In addition, the TGI in experiment [7], in experiment [9] and in [10] was above 100 µM each time.
